Results from US20250368628A1, “METHODS AND COMPOUNDS FOR MODULATING INHERITED GENETIC DISEASES” (Design Therapeutics, Inc., priority 2022, published 2025).
Like-named read-outs stand apart in the source and are kept apart here.

Key:
[1] = system: Myotonic Dystrophy 1 affected patient fibroblasts (Coriel GM04602; 1600 CTG repeats); assay: DM1 foci reduction assay (EC50 assay; CAG10-Cy3 FISH, foci per nucleus); assay type: cell-based
In short: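 Foci per nucleus counted by 20× imaging of 4 areas per well, after overnight FISH with 5 nM CAG10-Cy3 and DAPI staining of fixed, permeabilized cells. DM1 fibroblasts (GM04602, 1600 CTG) were dosed 48 h at 37 °C, 8 points, 3-fold dilutions, 3 μM top concentration.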

F35T cells = assay: Foci reduction in FECD (CAG10-Cy3 FISH, foci per nucleus); assay type: cell-based
Procedure: F35T cells were cultured in media containing Opti-MEM (ThermoFisher) supplemented with 8% FBS, 20 μg/mL ascorbic acid, […] CaCl2, 0.08% chondroitin sulfate, 1×Pen/Strep, 100 μg/mL bovine pituitary extract, 5 ng/mL epidermal growth factor, and 20 ng/mL nerve growth factor. Throughout the culture, cells were maintained in an incubator at 37° C. and 5% CO2. Media was refreshed every 48 hours. Once cells reached adequate confluency, they were harvested and seeded in 96 well plates with a density of 5000 cells per well in 200 μL of the supplemented Opti-MEM media. Cells were returned to the incubator and left to settle for 24 hours at 37° C. and 5% CO2. Cells were then treated in 8-point dose response with compounds or negative controls and incubated for 48 hours at 37° C. and 5% CO2. After treatment, cells were fixed with 4% PFA for 20 minutes at room temperature, followed by permeabilization with 70% ethanol. Cells were incubated at −20° C. for a minimum of 1 hour and maximum of 72 hours, after which the ethanol was removed, and cells were washed with PBS. Cells were rehydrated with 30% formamide and 2×SSC buffer for 10 minutes at room temperature. Cells were then incubated overnight at 37° C. in the hybridization solution containing 30% formamide, 2×SSC, 55 mg/mL dextran sulfate, 2.75 mg/mL bovine serum albumin, 0.2 μg/mL Herring sperm DNA, 1% vanadyl-ribonucleoside complex, and 0.05% 10 μM CAG10-Cy3 probe. Cells were washed twice with 30% formamide in 2×SSC, incubating the cells while shaking with the second wash at 37° C. and 200 rpm for 60 minutes. Cells were stained with 5 mg/mL DAPI 1:1000 in PBS, incubating at room temperature for 5 minutes. Cells were then washed with PBS and sealed with adhesive foil, with each well containing a final volume of 150 μL PBS. Cells were imaged on a Cytation 5 and analyzed on a foci per nucleus basis.

[2] = Homo sapiens, Fibroblast; DM1 patient fibroblasts, 48 h treatment, foci per nucleus; read-out: DM1 EC50, 48 h
[3] = F35T cells, 48 h treatment, foci per nucleus; read-out: FECD EC50, 48 h
[4] = Homo sapiens, Fibroblast; DM1 patient fibroblasts, foci per nucleus, 48 h treatment; read-out: DM1 EC50, 48 h
[5] = F35T cells, foci per nucleus, 48 h treatment; read-out: FECD EC50, 48 h

Structure (SMILES) | EC50 [1, 2] [µM] | EC50 (F35T cells; [3]) [µM] | EC50 [1, 4] [µM] | EC50 (F35T cells; [5]) [µM]
CN(CCCNC(=O)OC(C)(C)C)CCCNC(=O)c1nc(NC(=O)c2cc(NC(=O)CCNC(=O)c3nc(NC(=O)CCCNC(=O)c4cc(NC(=O)c5nc(NC(=O)CCNC(=O)c6cc(NC(=O)c7nccn7C)cn6C)cn5C)cn4CCCCCCN=[N+]=[N-])cn3C)cn2C)cn1C [Compound B-363] | < 0.1 | < 0.1 |  | 
Cn1cc(NC(=O)c2nc(NC(=O)CCNC(=O)c3cc(NC(=O)c4nccn4C)cn3C)cn2C)cc1C(=O)NCCCC(=O)Nc1cn(C)c(C(=O)NCCC(=O)Nc2cc(C(=O)Nc3cn(C)c(C(=O)NCCC(=O)NCCCCN=[N+]=[N-])n3)n(C)c2)n1 [Compound B-45] | < 0.1 | 0.5 to 1 |  | 
CCCNC(=O)c1nc(NC(=O)c2cc(NC(=O)CCNC(=O)c3nc(NC(=O)CCCNC(=O)c4cc(NC(=O)c5nc(NC(=O)CCNC(=O)c6cc(NC(=O)c7nccn7C)cn6C)cn5C)cn4CCCCCCNC(=O)CCOCCOCCOCCOCCOCCOC)cn3C)cn2C)cn1C [Compound B-235] | > 1 | > 1 |  | 
C=C(NCCC(=O)Nc1cc(C(=O)Nc2cn(C)c(C(=O)NCCC(=O)N3CCC(C#CC#CC4CCN(C(C)=O)CC4)CC3)n2)n(C)c1)c1nc(NC(=O)CCCNC(=O)c2cc(NC(=O)c3nc(NC(=O)CCNC(=O)c4cc(NC(=O)c5nccn5C)cn4C)cn3C)cn2CCCn2cc(COCCOCCOCCOC)nn2)cn1C [Compound B-402] | 0.1 to 0.5 | < 0.1 |  | 
CCN(CC)CCCC[C@H](NC(=O)C1CCNCC1)C(=O)NCCOCCOCCOCCOCCOCCNC(=O)CCNC(=O)c1nc(NC(=O)c2cc(NC(=O)CCNC(=O)c3nc(NC(=O)CCCNC(=O)c4cc(NC(=O)c5nc(NC(=O)CCNC(=O)c6cc(NC(=O)c7nccn7C)cn6C)cn5C)cn4C)cn3C)cn2C)cn1C [Compound B-95] | 0.5 to 1 | > 1 |  | 
CCCNC(=O)CCNC(=O)c1nc(NC(=O)c2cc(NC(=O)CCNC(=O)c3nc(NC(=O)CCCNC(=O)c4cc(NC(=O)c5nc(NC(=O)CCNC(=O)c6cc(NC(=O)c7nccn7C)cn6C)cn5C)cn4CCNC(C)=O)cn3C)cn2C)cn1C [Compound B-268] | 0.1 to 0.5 | < 0.1 |  | 
CNC(=O)CCNC(=O)c1nc(NC(=O)c2cc(NC(=O)CCNC(=O)c3nc(NC(=O)CCCNC(=O)c4cc(NC(=O)c5nc(NC(=O)CCNC(=O)c6cc(NC(=O)c7nccn7C)cn6C)cn5C)cn4C)cn3C)cn2C)cn1C [Compound B-309] | 0.5 to 1 | < 0.1 |  | 
CCCCn1cc(NC(=O)c2nc(NC(=O)CCNC(=O)c3cc(NC(=O)c4nccn4C)cn3C)cn2C)cc1C(=O)NC[C@H](N)CC(=O)Nc1cn(C)c(C(=O)NCCC(=O)Nc2cc(C(=O)Nc3cn(C)c(C(=O)NCCC(=O)N4CCN(C)CC4)n3)n(C)c2)n1 [Compound B-420] |  |  | 0.1 to 0.5 | 0.5 to 1
Cn1cc(NC(=O)c2nc(NC(=O)CCNC(=O)c3cc(NC(=O)c4nccn4C)cn3C)cn2C)cc1C(=O)NCCCC(=O)Nc1cn(C)c(C(=O)NCCC(=O)Nc2cc(C(=O)Nc3cn(C)c(C(=O)NCCCNC(CO)CO)n3)n(C)c2)n1 [Compound B-335] | 0.1 to 0.5 | 0.1 to 0.5 |  | 
Cn1cc(NC(=O)c2nc(NC(=O)CCNC(=O)c3cc(NC(=O)c4nccn4C)cn3C)cn2C)cc1C(=O)NCCCC(=O)Nc1cn(C)c(C(=O)NCCC(=O)Nc2cc(C(=O)Nc3cn(C)c(C(=O)NCCC(=O)N[C@@H](CCCNC(=N)N)C(=O)N[C@@H](CCCNC(=N)N)C(=O)NCCCCN=[N+]=[N-])n3)n(C)c2)n1 [Compound B-150] | > 1 | > 1 |  | 
Cn1cc(NC(=O)c2nc(NC(=O)CCNC(=O)c3cc(NC(=O)c4nccn4C)cn3C)cn2C)cc1C(=O)NCCCC(=O)Nc1cn(C)c(C(=O)NCCC(=O)Nc2cc(C(=O)Nc3cn(C)c(C(=O)NCCC(=O)N4CCC(C#CC#CC5CCN(C(=O)c6cccc(C(=O)O)c6)CC5)CC4)n3)n(C)c2)n1 [Compound B-224] | > 1 | 0.5 to 1 |  | 
CCCNC(=O)CCNC(=O)c1nc(NC(=O)c2cc(NC(=O)CCNC(=O)c3nc(NC(=O)CCCNC(=O)c4cc(NC(=O)c5nc(NC(=O)CCNC(=O)c6cc(NC(=O)c7nccn7C)cn6C)cn5C)cn4CCOCCNC(C)=O)cn3C)cn2C)cn1C [Compound B-298] | 0.1 to 0.5 | 0.1 to 0.5 |  | 
CCCCCNC(=O)CCNC(=O)c1nc(NC(=O)c2cc(NC(=O)CCNC(=O)c3nc(NC(=O)CCCNC(=O)c4cc(NC(=O)c5nc(NC(=O)CCNC(=O)c6cc(NC(=O)c7nccn7C)cn6C)cn5C)cn4C)cn3C)cn2C)cn1C [Compound B-39] | < 0.1 | < 0.1 |  | 
Cn1cc(NC(=O)c2nc(NC(=O)CCNC(=O)c3cc(NC(=O)c4nccn4C)cn3C)cn2C)cc1C(=O)NCCCC(=O)Nc1cn(C)c(C(=O)NCCC(=O)Nc2cc(C(=O)Nc3cn(C)c(C(=O)NCCC(=O)NCCCN4CCOCC4)n3)n(C)c2)n1 [Compound B-37] | 0.1 to 0.5 | 0.1 to 0.5 |  | 
CC(=O)N1CCC(C#CC#CC2CCN(C(=O)CCNC(=O)c3nc(NC(=O)c4cc(NC(=O)CCNC(=O)c5nc(NC(=O)CCCNC(=O)c6cc(NC(=O)c7nc(NC(=O)CCNC(=O)c8cc(NC(=O)c9nccn9C)cn8C)cn7C)cn6C)cn5C)cn4C)cn3C)CC2)CC1 [Compound B-379] | 0.1 to 0.5 | < 0.1 |  | 
Cn1cc(NC(=O)c2nc(NC(=O)CCNC(=O)c3cc(NC(=O)c4nccn4C)cn3C)cn2C)cc1C(=O)NCCCC(=O)Nc1cn(C)c(C(=O)NCCC(=O)Nc2cc(C(=O)Nc3cn(C)c(C(=O)NCCC(=O)N4CCC(N5CCN(CCOCCOCCOCCOCCNC(=O)OC(C)(C)C)CC5)CC4)n3)n(C)c2)n1 [Compound B-23] | 0.1 to 0.5 | > 1 |  | 
CC(=O)NCCCCn1cc(NC(=O)c2nc(NC(=O)CCNC(=O)c3cc(NC(=O)c4nccn4C)cn3C)cn2C)cc1C(=O)NCCCC(=O)Nc1cn(C)c(C(=O)NCCC(=O)Nc2cc(C(=O)Nc3cn(C)c(C(=O)NCCC(=O)N4CCC(C#CC#CC5CCN(C(C)=O)CC5)CC4)n3)n(C)c2)n1 [Compound B-283] | 0.5 to 1 | < 0.1 |  | 
CN(CCCNC(=O)c1cccc(C(=O)O)c1)CCCNC(=O)c1cc(NC(=O)CCNC(=O)c2nc(NC(=O)[C@H](N)CCNC(=O)c3cc(NC(=O)c4nc(NC(=O)CCNC(=O)c5cc(NC(=O)c6nccn6C)cn5C)cn4C)cn3C)cn2C)cn1C [Compound B-368] | > 1 | > 1 |  | 
Cn1cc(NC(=O)c2nccn2C)cc1C(=O)NCCC(=O)Nc1cn(C)c(C(=O)Nc2cc(C(=O)NCCCC(=O)Nc3cn(C)c(C(=O)NCCC(=O)Nc4cc(C(=O)Nc5cn(C)c(C(=O)NCCC(=O)N6CCC(C#CC#CC7CCNCC7)CC6)n5)n(C)c4)n3)n(CCCOCCN)c2)n1 [Compound B-303] | 0.5 to 1 | 0.1 to 0.5 |  | 
CN1CCN(C(=O)CCNC(=O)c2nc(NC(=O)c3cc(NC(=O)CCNC(=O)c4nc(NC(=O)C[C@@H](N)CNC(=O)c5cc(NC(=O)c6nc(NC(=O)CCNC(=O)c7cc(NC(=O)c8nccn8C)cn7C)cn6C)cn5C)cn4C)cn3C)cn2C)CC1 [Compound B-416] |  |  | 0.5 to 1 | > 1
Cn1cc(NC(=O)c2nccn2C)cc1C(=O)NCCC(=O)Nc1cn(C)c(C(=O)Nc2cc(C(=O)NCC[C@@H](N)C(=O)Nc3cn(C)c(C(=O)NCCC(=O)Nc4cc(C(=O)Nc5cn(C)c(C(=O)CCCC(=O)N6CCCCC6)n5)n(C)c4)n3)n(C)c2)n1 [Compound B-406] | 0.1 to 0.5 | > 1 |  | 
CCCNC(=O)c1nc(NC(=O)c2cc(NC(=O)CCNC(=O)c3nc(NC(=O)CCCNC(=O)c4cc(NC(=O)c5nc(NC(=O)CCNC(=O)c6cc(NC(=O)c7nccn7C)cn6C)cn5C)cn4CCCCCCN)cn3C)cn2C)cn1C [Compound B-234] | 0.5 to 1 | 0.1 to 0.5 |  | 
Cn1cc(NC(=O)c2nc(NC(=O)CCNC(=O)c3cc(NC(=O)c4nccn4C)cn3C)cn2C)cc1C(=O)NCCCC(=O)Nc1cn(C)c(C(=O)NCCC(=O)Nc2cc(C(=O)Nc3cn(C)c(C(=O)NCCC(=O)NCCOCCOCCOCCOCCN4CCN(C5CCN(C(=O)OCc6ccccc6)CC5)CC4)n3)n(C)c2)n1 [Compound B-21] | 0.1 to 0.5 | 0.1 to 0.5 |  | 
CCCNC(=O)CCNC(=O)c1nc(NC(=O)c2cc(NC(=O)CCNC(=O)c3nc(NC(=O)CCCNC(=O)c4cc(NC(=O)c5nc(NC(=O)CCNC(=O)c6cc(NC(=O)c7nccn7C)cn6C)cn5C)c[nH]4)cn3C)cn2C)cn1C [Compound B-396] | 0.1 to 0.5 | 0.1 to 0.5 |  | 
CCCNC(=O)CCNC(=O)c1nc(NC(=O)c2cc(NC(=O)CCNC(=O)c3nc(NC(=O)[C@@H](CCNC(=O)c4cc(NC(=O)c5nc(NC(=O)CCNC(=O)c6cc(NC(=O)c7nccn7C)cn6C)cn5C)cn4C)NC(C)=O)cn3C)cn2C)cn1C [Compound B-5] | < 0.1 | 0.1 to 0.5 |  | 
